Measured values from patent EP3020398A1, “Compounds and formulations for reducing scarring” (NITTO DENKO CORPORATION, priority 2014, dated 2016).

What was measured:
[1] = system: full-thickness skin wounds; assay: Collagen content and organisation (picrosirius red, bright-field and polarised light image analysis) in mouse excisional wound model; format: in vivo, Mice; conditions: wounds treated versus vehicle; Fig. 5
Experimental: Four full-thickness skin wounds were performed by cutting the folded skin on the back of the mice with a 7.5 mm x 3 mm elliptical biopsy punch (Elliptical Excisional Instrument, Acuderm Inc.). The skin on the back was raised and folded at the level of the vertebral column by using the thumb and the index finger. The folded skin was then placed on a wood tongue depressor with the animal laying on one side and two wounds were performed through the folded skin by using an elliptical biopsy punch (Elliptical Excisional Instrument, Acuderm Inc.), resulting in four wounds on the back skin: two on the right of the vertebral column and two on the left (Figure 1). […]
Collagen content and organisation were assessed as published by De Visscher et al. (2007, 2008). […] From this the collagen content and organisation can be measured according to the following method.
The total area (At) of the region of interest (ROI) and the area of the red stained material within that area (Ar) on the bright-field image. On the polarized light image, the area of the red illuminated bundles (Ab) is measured. The collagen density and organized collagen are calculated by the following formulae: Collagen density: (Ar/At) × 100 [formula] […]
Both are expressed as a percentage: collagen density as a percentage of the total area and organized collagen as a percentage of the collagen area.

[2] = system: full-thickness skin wounds; assay: Scar index analysis (H&E histology) in mouse excisional wound model; format: in vivo, Mice; conditions: for scar index: topical, 5 daily treatments, harvest after 14 days
Experimental: The mouse model used here can be considered one of the simplest and standard murine models for investigating scar formation and wound healing.
Mice were weighed and then anaesthetized with 5% isoflurane in air for induction and then administered 2.5-3% of isoflurane in air for the remainder of the procedure. The animals were administered Tramal (Tramadol) intraperitoneally for analgesia at a 0.1 mg/kg dose. Before surgery the back of the mice was shaved and disinfected with isobetadine soap, rinsed with water and then swabbed with iodium alcohol.
Four full-thickness skin wounds were performed by cutting the folded skin on the back of the mice with a 7.5 mm x 3 mm elliptical biopsy punch (Elliptical Excisional Instrument, Acuderm Inc.). The skin on the back was raised and folded at the level of the vertebral column by using the thumb and the index finger. The folded skin was then placed on a wood tongue depressor with the animal laying on one side and two wounds were performed through the folded skin by using an elliptical biopsy punch (Elliptical Excisional Instrument, Acuderm Inc.), resulting in four wounds on the back skin: two on the right of the vertebral column and two on the left (Figure 1). The epidermis, the dermis and the fat tissue in the wound was carefully removed without touching other tissues. The wounds were then immediately treated with topical application of Composition 1 (Tv - vehicle), Composition 2 (T1 - 1 µM Lipoxin A4), or Composition 3 (T2 - 100 µM Lipoxin A4). The position of the wounds that were treated with active agent (T1 or T2) or treated with vehicle (Tv) was randomised. The wound site was then covered with OP-Film (Somed International, the Netherlands). The borders were then fixed with cyanoacrylate glue (Loctite).
The mice were allowed to recover from the surgical preparation in a clean cage with fresh bedding and under a heating lamp. To avoid possible contamination the mice were placed in individual cages containing a cellulose bed that was changed every 24 hours. Single caging avoids other mice from detaching the adhesive patches.
The treatment was repeated at the day 1, 2, 3 and 4 post-surgery for a total of 5 treatments in the first 5 days of healing. At each time point the mice were briefly anaesthetized with isoflurane and a new dose of ointment was injected through the film onto the wound, after which the animal was left to recover. At day 5 all films were removed.
After 14 days the mice were sacrificed under isoflurane anaesthesia by cervical dislocation to harvest the regenerated tissue. Skin samples were taken. The back of the mouse was carefully shaved paying careful attention to not touch the wound area. […]
The extent of scarring was measured in accordance with the procedure set out by Khorasani et al. (2011). […]

With CCCCC[C@H](O)/C=C/C=C\C=C\C=C\[C@@H](O)[C@@H](O)CCCC(=O)O [Lipoxin A4] the “Collagen content (in words, versus vehicle)” value [1] was “Lower collagen content was observed in wounds treated with vehicle”, the “Collagen organisation (in words, versus vehicle)” value [1] was “increased values” and the scar index ([2]; 1 µM Lipoxin A4 treatment, Figure 4) was 905 µm. For the same compound, the scar index ([2]; 100 µM Lipoxin A4 treatment, Figure 4) was 511 µm, the “lower scarring than wounds treated with Control (quantitative scar index analysis)” value ([2]; Figure 3, n=5, p<0.008) was 49% and the scar index ([2]; Pooled Lipoxin A4 treatment, Figure 3, p=0.008 vs vehicle (Vehicle 1478 ± 334)) was 748 µm.
